A melting point compilation (Tetko et al.; mined from patent text by program, amines drawn as free bases though some values may be those of a salt)

Row | Compound | melting point
1 | CN(CCCCC(=O)O)c1ccc([N+](=O)[O-])cc1C=O | 107 to 108 °C
2 | CCCCCn1c(=O)c2cc(C(=O)O)cn2c2ccccc21 | 184 to 186 °C
3 | COc1ccc2c(c1)C(C(=O)N(Cc1ccc(N(C)C)cc1)c1ccc(C(C)C)cc1)CCO2 (configuration not stated) | 82 to 84 °C
4 | CC(C)(CCCCCCCCCCOCc1ccccc1)C(=O)O | 53 to 55 °C
5 | CC1(C)CC2(CC(C)(C)N1O)NC(=O)N(CC1CO1)C2=O (configuration not stated) | 154 °C
6 | CCC1=Nc2c(C)nn(C)c2C2=NCCN12 | 148 to 150 °C
7 | O=C(Nc1ccc(C(=O)N2CCC(O)c3ccccc32)cc1)c1cc(Cl)cc(Cl)c1 (configuration not stated) | 215 to 217 °C
8 | CCOc1cc2c(Nc3ccc(Sc4nccn4C)c(Cl)c3)c(C#N)cnc2cc1N1CCC(N2CCCC2)CC1 | 203 to 207 °C
9 | OCC1CCc2c([nH]c3ccc(Cl)cc23)C1 (configuration not stated) | 168 to 169 °C
10 | O=C1CCCc2cc(Sc3cccc(F)c3)cc(F)c21 | 126 to 127 °C
11 | CCOC1C(=O)NC(=O)N1CCCc1ccccc1 (configuration not stated) | 64 °C
12 | COc1cc(OC)c(C2=CCN(C)CC2)c(O)c1C(C)=O | 143 to 144 °C
13 | O=C(NC1CCCCC1)NS(=O)(=O)c1ccc2c(c1)CCN(C(=O)N1CCCC1)CC2 | 139 to 141 °C
14 | CC(Cc1c[nH]c2ccccc12)NC(=O)C=C1CCC(c2cccc(F)c2)(N(C)C)CC1 (configuration not stated) | 163 to 166 °C
15 | Cc1ccc2c(c1)C(=O)c1ccccc1CO2 | 100 to 103 °C
16 | O=C(O)CCC=C(Cl)Cl | 117 to 118 °C
17 | O=S(=O)(N[C@H]1CC[C@H](CCN2CCC(c3cccc4c3CCO4)CC2)CC1)c1ccccc1 | 130 °C
18 | CN1C(=S)N(C)C2(c3ccccc3)CCCN12 (configuration not stated) | 83 to 85 °C
19 | CCOC(=O)C1(C(=O)OCC)CCc2cc3c(cc2C1c1cc(OC)c(O)c(OC)c1)OCO3 (configuration not stated) | 147 to 148 °C
20 | O=S(=O)(Nc1cccc(CCOCc2csc(-c3ccc(F)c(Cl)c3)n2)c1)C(F)(F)F | 141 to 143 °C
21 | FC(F)(F)c1cc(-c2ccc(Cl)nn2)ccc1Cl | 211 to 214 °C
22 | COc1cc2c(cc1Br)-c1c(-c3cccs3)c3c(n1CC2)C(=O)N(C(C)(C)C)CCC3 | 232 to 233 °C

Row | Compound | melting point
23 | CCC(Cc1ccc(OCCN2CCCCC2)cc1)(C(=O)NO)S(=O)(=O)c1ccc(OC)cc1 (configuration not stated) | 75 °C
24 | O=C1CCCc2c1n(CCBr)c1ccc(Cl)cc21 | 121 °C
25 | OCC#Cc1ccc(Br)cn1 | 121 to 122 °C
26 | Cc1cc(C(C)(C)C)c(O)c(S(=O)(=O)Nc2ccc([N+](=O)[O-])cc2Cl)c1 | 239 to 243 °C
27 | O=C(O)[C@@H]1Cc2cc(Cl)cc(Cl)c2S[C@H]1C(F)(F)F (relative stereo) | 165 to 170 °C
28 | Cc1scc(C2=NOCCO2)c1S(=O)(=O)NC(=O)n1nc(OC(C)C)n(C)c1=O | 199 °C
29 | CCCCCCCCCCOc1ccc2cc(C#CC(C)OC(=O)CC)ccc2c1 (configuration not stated) | 74 to 75 °C
30 | CCCCCCCOc1ccc(C(=O)Cl)cc1OCCCCCCC | 57 to 58 °C
31 | Cc1ccc(CC(=O)O)c(OCc2ccc(OCc3nc(-c4ccccc4)oc3C)cc2)n1 | 138 to 139 °C
32 | CN(C)S(=O)(=O)N1CCNC1=O | 129 °C
33 | CC(C)Oc1ccc(-c2ccc3c(c2)C=C(C(=O)Nc2ccc(CN(C)C4CCOCC4)cc2)CCS3(=O)=O)cc1 | 245 to 247 °C
34 | CSc1c(S(N)(=O)=O)ccn1C | 135 to 137 °C
35 | CCCCCCCCOc1ccc(Cl)c2c(=O)c3ccccc3sc12 | 86 to 87.5 °C
36 | CSc1nc(OCC(F)(F)F)nc2sc(C)cc12 | 97 °C
37 | CN(CCSCc1nc[nH]c1CSCCN(C)C(N)=S)C(N)=S | 154 to 155 °C
38 | CCC(=O)N1N=C(c2ccc([N+](=O)[O-])cc2)c2cc(Br)ccc2CC1C (configuration not stated) | 178 to 180 °C
39 | N#CC1c2ccccc2Oc2cc(O)cc(O)c21 (configuration not stated) | 211 to 215 °C
40 | Cc1ncccc1COc1ccc(Cn2cc(CCC(=O)O)c(-c3ccccc3)c2)cc1 | 158 to 159 °C
41 | Cc1nc(N)c2nc(C)n(CCCNC(=O)N3CCOCC3)c2c1C | 129 to 130 °C
42 | Cc1[nH]cnc1CSCCNC1=C([N+](=O)[O-])CCCN1 | 206 °C
43 | CCCCNC(=O)NS(=O)(=O)c1ccc(CCNC(=O)N2Cc3c(Cl)cc(Cl)cc3C2=O)cc1 | 190 to 192 °C
44 | Cc1ccc(Cn2c(=O)c3c(N4CCN(C)CC4)cc(Cl)cc3n(Cc3ccccc3)c2=O)cc1C | 96 to 99 °C

Row | Compound | melting point
45 | CCCCN(C(=O)CCCCC(=O)N(CCCC)C1CC(C)(C)NC(C)(C)C1)C1CC(C)(C)NC(C)(C)C1 | 134 to 144 °C
46 | CC(C)(C)OC(=O)COc1ccc(C=O)cc1 | 56 to 57 °C
47 | Cc1ccc(S(=O)(=O)NC(=O)NCCC(F)=C(F)F)cc1 | 134 to 136 °C
48 | CC1C[C@H]2[C@@H](O1)[C@H](N=[N+]=[N-])C(=O)N2Cc1ccccc1 (relative stereo) | 70 to 73 °C
49 | CC(C)=C1C(=O)N(c2ccc(O)cc2)C(=O)/C1=C(/c1cc(C)sc1C)C(C)C | 136 to 138 °C
50 | CCOCc1ncc[nH]1 | 205 to 206 °C
51 | O=C(Nc1ccc(F)cc1)N(O)Cc1ccc(OCc2csc(-c3ccc(C(F)(F)F)cc3)n2)cc1 | 174 to 176 °C
52 | CCC1(CCCN2CCN(c3cccc(Cl)c3)CC2)C(=O)Nc2ccc(Cl)cc21 (configuration not stated) | 117 to 119 °C
53 | Cc1cc2c(Cl)c([N+](=O)[O-])cnc2s1 | 96 to 98 °C
54 | O=[N+]([O-])c1c(Cl)sc(Cl)c1S(=O)(=O)Cl | 89 to 91 °C
55 | CNC(=S)NCCCCc1nc[nH]c1C | 110 to 112 °C
56 | CCOC(=O)C1C(=O)CC(C)(O)C(C(=O)OCC)C1c1cc(OC)c2oc(C)c(C)c2c1 (configuration not stated) | 157 to 158 °C
57 | CN(C)c1ccc(NC(=O)N(C[C@@H]2CCC[C@H](CN(CC(C)(C)C)C(=O)Nc3ccc(N(C)C)cc3)C2)CC(C)(C)C)cc1 | 171 to 173 °C
58 | N#Cc1ccc2[nH]cc(C3=CCC4(CC3)OCCO4)c2c1 | 158 to 160 °C
59 | CC(=O)OCC1OC(n2cc(Cc3ccc(Br)cc3)c3c(C)cccc32)C(OC(C)=O)C(OC(C)=O)C1OC(C)=O (configuration not stated) | 190 to 192 °C
60 | CCCCCCCCCCOC(=O)Oc1ccc(-c2ccc(C#N)cc2)cc1 | 59.3 to 60 °C
61 | CN(C)Cc1cc(-c2ccc3c(c2)CCO3)nn(CC2CC2)c1=O | 109 to 110 °C
62 | CN(C)C(=O)C(C)(c1ccccc1)n1ccc(-c2ccccc2)n1 (configuration not stated) | 129 to 132 °C
63 | CCC(C)c1ccc2c(c1)C1(O)C(=O)c3ccccc3C1(O)O2 (configuration not stated) | 134 to 136 °C
64 | CCOC(=O)c1cn2c3c(c(C(C#N)C(=O)OCC)c(F)cc3c1=O)CCN2C (configuration not stated) | 153 to 154 °C

Second part, the compound after the results:

Row | melting point | Compound
65 | 239 to 241 °C | CC(=NNC(=O)c1ccncc1)c1ccc2nnn(Cc3ccc4ncccc4c3)c2n1
66 | 185 to 190 °C | COC(=O)N1CCN2c3ccc(N4CC(CNC(C)=O)OC4=O)cc3OCC2C1 (configuration not stated)
67 | > 360 °C | O=S(=O)(O)c1ccc2nc(NC3=NCCN3)[nH]c2c1
68 | 105 to 106 °C | CCOC(=O)NNS(=O)(=O)c1ccc(C)cc1
69 | 108 to 110 °C | COc1ccc(Nc2ccccc2)c2ccccc12
70 | 164 to 165 °C | COc1cccc(-c2ccc3c(c2)C(C)(C)OC(=O)N3)c1
71 | 90 to 93 °C | CC1Cc2cc(OCc3ccccc3)c(O)cc2C(=O)C1C (configuration not stated)
72 | 268 to 269 °C | COc1cccc(C(=O)Nc2nnn[nH]2)c1N
73 | 104 to 106 °C | Cc1c(N)cccc1CO
74 | 122 to 123 °C | NC(=O)CNC(=O)c1cncc(-c2cccc3cc(Cc4cccc(C(F)(F)F)c4)sc23)c1
75 | 203 to 206 °C | COc1ccc(C(=O)Nc2ccccc2)cc1CNS(=O)(=O)c1cc(Cl)cc(Cl)c1
76 | 166 to 167 °C | O=C(O)COc1ccc(-c2noc3ccccc23)c(Cl)c1Cl
77 | 93 to 94 °C | COc1cc(O)c2c(c1)OC(C(C)(C)C=O)CC2=O (configuration not stated)
78 | 78 °C | COC(=O)n1c(SCc2ccccn2)nc2ccccc21
79 | 115 to 118 °C | NC1=Nc2ccc(OC(F)(F)F)cc2CS1
80 | 132 to 135 °C | COc1ccc(O[C@@H]2CCNC[C@H]2O)c(Br)c1 (relative stereo)
81 | 296 to 298 °C | C=CC(=O)Nc1ccc2c(Nc3cccc(Cl)c3)ncnc2c1
82 | 122 to 124 °C | CC1=C(C(=O)OCCOc2ccccc2)C(c2ccccc2OC(F)F)c2c(ccnc2OC(C)C)N1 (configuration not stated)
83 | 360 to 362 °C | Cc1sc2nc(N)[nH]c(=O)c2c1-c1ccc(F)cc1

Row | melting point | Compound
84 | 97 °C | Cc1nc(-c2ccccc2)nc(-c2ccccn2)n1
85 | 215 °C | O=C(NC(=O)c1c(O)cccc1F)Nc1ccc(Cl)cc1
86 | 116 to 118 °C | Cc1nc2cccc3n(CCCCNS(=O)(=O)CC(F)(F)F)c(=O)c1n23
87 | 38 to 40 °C | CSC1CC(=O)N1CC(=O)OCc1ccccc1 (single isomer, unassigned; (-))
88 | > 270 °C | Cc1nc(=O)[nH]c2ccc(Cl)cc12
89 | 230 to 232 °C | Cn1cc(-c2cc3cccnc3[nH]2)c2cc(C(=O)N(CCO)CCO)ccc21
90 | 170 °C | CN1CCN(C(=O)c2cn(C)nc2Nc2ccc(C(F)(F)F)cc2N)CC1
91 | 150 to 151 °C | CCOC(=O)C1CCN2C(=O)C(=O)c3cc(Br)cc1c32 (configuration not stated)
92 | 199 to 200 °C | CON(C)C(=O)Nc1c(C(=O)c2cc(C)ccn2)[nH]c2cc(Cl)ccc12
93 | 157 to 160 °C | COc1ccccc1-n1c(=O)[nH]c2c(C(N)=O)nc(NCCO)nc21
94 | 108 to 110 °C | CC(C)NC(=O)c1cc(N(C)C)cc(Oc2cccc(C(F)(F)F)c2)n1
95 | 258 to 260 °C | C[C@@H]1CN(c2c(F)c(N)c3c(=O)c(C(=O)O)cn(C4CC4)c3c2F)C[C@H](C)N1
96 | 73.5 to 74.5 °C | CCOC(=O)/C=C/c1ccc(OCOC)cc1Oc1ncc(C(F)(F)F)cc1Cl
97 | 145 to 146 °C | NC(=O)C(CCc1ccccn1)(c1ccccc1)c1ccccc1
98 | 281 to 282 °C | N#Cc1c(O)nc2ccc([N+](=O)[O-])cc2c1O
99 | 229 to 231 °C | COc1cccc2c(=O)c(C(N)=O)coc12
100 | 106 to 108 °C | COC(=O)c1cc(N2C(=O)C(=O)N(C(C)C)C2=O)c(F)cc1Cl
101 | 268 to 269 °C | Cc1nc2c(s1)-c1nc(Nc3ccc(O)cc3)ncc1CC2
102 | 166 to 167 °C | NC(=O)c1ccccc1Sc1ccccc1[N+](=O)[O-]
